Test results: patent US11891365B2, “3-alkyl-4-amido-bicyclic [4,5,0] hydroxamic acids as HDAC inhibitors” (Valo Health, Inc., priority 2015, dated 2024)

Target: T1, Full length human recombinant HDAC6 protein (Homo sapiens, UniProt Q9UBN7)
T1 sequence (Q9UBN7 1-1215): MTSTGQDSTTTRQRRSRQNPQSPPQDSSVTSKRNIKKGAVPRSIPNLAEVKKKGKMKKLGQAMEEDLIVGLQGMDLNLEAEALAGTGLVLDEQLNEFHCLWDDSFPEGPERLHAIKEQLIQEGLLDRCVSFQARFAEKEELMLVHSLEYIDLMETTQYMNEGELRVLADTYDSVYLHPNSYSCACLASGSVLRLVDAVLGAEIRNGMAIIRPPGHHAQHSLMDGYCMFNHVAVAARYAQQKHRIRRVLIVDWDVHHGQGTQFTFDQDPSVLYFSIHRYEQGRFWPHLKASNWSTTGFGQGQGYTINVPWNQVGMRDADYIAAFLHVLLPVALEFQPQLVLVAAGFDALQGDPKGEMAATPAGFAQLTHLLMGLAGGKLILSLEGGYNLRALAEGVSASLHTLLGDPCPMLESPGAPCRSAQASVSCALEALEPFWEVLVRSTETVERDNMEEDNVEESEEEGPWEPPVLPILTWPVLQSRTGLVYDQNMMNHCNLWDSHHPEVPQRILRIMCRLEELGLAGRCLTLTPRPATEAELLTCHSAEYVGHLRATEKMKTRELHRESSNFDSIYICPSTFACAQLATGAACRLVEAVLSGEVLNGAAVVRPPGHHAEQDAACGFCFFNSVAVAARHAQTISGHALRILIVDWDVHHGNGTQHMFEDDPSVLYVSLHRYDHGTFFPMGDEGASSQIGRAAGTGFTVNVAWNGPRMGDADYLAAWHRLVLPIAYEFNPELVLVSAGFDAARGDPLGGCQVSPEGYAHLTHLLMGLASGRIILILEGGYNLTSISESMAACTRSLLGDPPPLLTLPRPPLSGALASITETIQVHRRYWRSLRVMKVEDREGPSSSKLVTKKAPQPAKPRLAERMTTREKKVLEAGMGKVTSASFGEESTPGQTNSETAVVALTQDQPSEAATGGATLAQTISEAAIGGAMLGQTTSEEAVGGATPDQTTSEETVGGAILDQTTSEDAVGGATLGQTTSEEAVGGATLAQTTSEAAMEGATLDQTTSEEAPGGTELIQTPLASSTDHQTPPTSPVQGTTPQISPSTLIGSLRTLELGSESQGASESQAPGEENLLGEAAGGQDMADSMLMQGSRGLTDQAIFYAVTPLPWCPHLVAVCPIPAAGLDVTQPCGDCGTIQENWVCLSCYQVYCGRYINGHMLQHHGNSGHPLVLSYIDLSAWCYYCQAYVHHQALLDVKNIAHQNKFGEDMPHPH
Experiment: In vitro histone deacetylase assay: enzymatic HDAC6 electrophoretic mobility shift assay
Type: biochemical
Conditions: 1 nM enzyme, 2 μM peptide substrate RHKK(Ac)-NH2, 25° C., 12 concentrations; read-out: Inhibitory Concentration (IC50) Values against HDAC6, Activity Range
Description: The enzymatic HDAC6 assay was performed using electrophoretic mobility shift assay. […] The enzymatic reactions were assembled in 384 well plates in a total volume of 25 μL in a reaction buffer composing: 100 mM HEPES, pH7.5, 25 mM KCl, 0.1% bovine serum albumin, 0.01% Triton X-100, 1% DMSO (from compounds) 2 μM of the fluorescently labeled peptide substrate and enzyme. The enzyme was added at a final concentration of 1 nM. The peptide substrate RHKK(Ac)—NH2 was used. The compounds were tested at 12 concentrations spaced by 3× dilution intervals. Negative control samples ([…] in the absence of inhibitor) and positive control samples (100%-inhibition) were assembled in replicates of four in each assay plate. The reactions were incubated at 25° C. and quenched by the addition of 45 μL of termination buffer (100 mM HEPES, pH 7.5, 0.01% Triton X-100, 0.05% SDS).
The terminated assay plates were analyzed on LabChip® 3000 microfluidic electrophoresis instrument (Perkin Elmer/Caliper Life Sciences). The fluorescence intensity of the electrophoretically separated de-acetylated product and substrate peptide was measured. Activity in each sample was determined as the product to sum ratio (PSR): P/(S+P), where P is the peak height of the product peptide and S is the peak height of the substrate peptide. Percent inhibition (Pinh) is determined using the following equation:
Pinh=(PSR0%−PSRinh)/(PSR0%−PSR100%)*100, where PSRinh is the product sum ratio in the presence of inhibitor, PSR0% is the average product sum ration in the absence of inhibitor and PSR100% is the average product sum ratio in 100%-inhibition control samples. The IC50 values of inhibitors were determined by fitting the %-inhibition curves with 4 parameter dose-response model using XLfit 4 software.

Row | IC50 | Structure (SMILES)
1 | 100 to 500 nM | O=C(NO)c1ccc2c(c1)OCCN(C(=O)COc1cccc(Cl)c1)C2 [4-(2-(3-chlorophenoxy)acetyl)-N-hydroxy-2,3,4,5-tetrahydrobenzo[f][1,4]oxazepine-8-carboxamide]
2 | ≤ 100 nM | CC(C)(C(=O)N1CCOc2cc(C(=O)NO)ccc2C1)n1cc(Cl)cn1 [4-(2-(4-chloro-1H-pyrazol-1-yl)-2-methylpropanoyl)-N-hydroxy-2,3,4,5-tetrahydrobenzo[f][1,4]oxazepine-8-carboxamide]
3 | 100 to 500 nM | CC(C)(C(=O)N1CCOc2cc(C(=O)NO)ccc2C1)c1ccc(F)cc1 [4-(2-(4-fluorophenyl)-2-methylpropanoyl)-N-hydroxy-2,3,4,5-tetrahydrobenzo[f][1,4]oxazepine-8-carboxamide]
4 | 100 to 500 nM | CC(C(=O)N1CCOc2cc(C(=O)NO)ccc2C1)c1ccc(F)cc1 (stereo not drawn) [4-(2-(4-fluorophenyl)propanoyl)-N-hydroxy-2,3,4,5-tetrahydrobenzo[f][1,4]oxazepine-8-carboxamide]
5 | 100 to 500 nM | CC(C)(C(=O)N1CCOc2cc(C(=O)NO)ccc2C1)c1ccc(-c2ccccc2)cc1 [4-(2-([1,1′-biphenyl]-4-yl)-2-methylpropanoyl)-N-hydroxy-2,3,4,5-tetrahydrobenzo[f][1,4]oxazepine-8-carboxamide]
6 | 100 to 500 nM | CC(C)(C(=O)N1CCOc2cc(C(=O)NO)ccc2C1)C1CCCCC1 [4-(2-cyclohexyl-2-methylpropanoyl)-N-hydroxy-2,3,4,5-tetrahydrobenzo[f][1,4]oxazepine-8-carboxamide]
7 | > 500 nM | O=C(NO)c1ccc2c(c1)OCCN(C(=O)C(c1ccccc1)C1CCCCC1)C2 (stereo not drawn) [4-(2-cyclohexyl-2-phenylacetyl)-N-hydroxy-2,3,4,5-tetrahydrobenzo[f][1,4]oxazepine-8-carboxamide]
8 | ≤ 100 nM | O=C(NO)c1ccc2c(c1)OCCN(C(=O)CC1CC1)C2 [4-(2-cyclopropylacetyl)-N-hydroxy-2,3,4,5-tetrahydrobenzo[f][1,4]oxazepine-8-carboxamide]
9 | 100 to 500 nM | O=C(NO)c1ccc2c(c1)OCCN(C(=O)C1CC(F)(F)C1)C2 [4-(3,3-difluorocyclobutane-1-carbonyl)-N-hydroxy-2,3,4,5-tetrahydrobenzo[f][1,4]oxazepine-8-carboxamide]
10 | ≤ 100 nM | O=C(NO)c1ccc2c(c1)OCCN(C(=O)C1CCC(F)(F)C1)C2 (stereo not drawn) [4-(3,3-difluorocyclopentane-1-carbonyl)-N-hydroxy-2,3,4,5-tetrahydrobenzo[f][1,4]oxazepine-8-carboxamide]
11 | 100 to 500 nM | O=C(NO)c1ccc2c(c1)OCCN(C(=O)c1cc(C(F)(F)F)cc(C(F)(F)F)c1)C2 [4-(3,5-bis(trifluoromethyl)benzoyl)-N-hydroxy-2,3,4,5-tetrahydrobenzo[f][1,4]oxazepine-8-carboxamide]
12 | ≤ 100 nM | CN(C)c1c(C(=O)N2CCOc3cc(C(=O)NO)ccc3C2)sc2ccccc12 [4-(3-(dimethylamino)benzo[b]thiophene-2-carbonyl)-N-hydroxy-2,3,4,5-tetrahydrobenzo[f][1,4]oxazepine-8-carboxamide]
13 | ≤ 100 nM | CCC1(C(=O)N2CCOc3cc(C(=O)NO)ccc3C2)COC1 [4-(3-ethyloxetane-3-carbonyl)-N-hydroxy-2,3,4,5-tetrahydrobenzo[f][1,4]oxazepine-8-carboxamide]
14 | 100 to 500 nM | O=C(NO)c1ccc2c(c1)OCCN(C(=O)C1CCC(F)(F)CC1)C2 [4-(4,4-difluorocyclohexane-1-carbonyl)-N-hydroxy-2,3,4,5-tetrahydrobenzo[f][1,4]oxazepine-8-carboxamide]

Second part, the molecule before the results:

Row | Structure (SMILES) | IC50
15 | CC1(C)CC(C(=O)N2CCOc3cc(C(=O)NO)ccc3C2)CCO1 (stereo not drawn) [4-(2,2-dimethyltetrahydro-2H-pyran-4-carbonyl)-N-hydroxy-2,3,4,5-tetrahydrobenzo[f][1,4]oxazepine-8-carboxamide] | 100 to 500 nM
16 | O=C(NO)c1ccc2c(c1)OCCN(C(=O)C1Cc3ccccc3C1)C2 [4-(2,3-dihydro-1H-indene-2-carbonyl)-N-hydroxy-2,3,4,5-tetrahydrobenzo[f][1,4]oxazepine-8-carboxamide] | ≤ 100 nM
17 | O=C(NO)c1ccc2c(c1)OCCN(C(=O)c1ccc3c(c1)CCO3)C2 [4-(2,3-dihydrobenzofuran-5-carbonyl)-N-hydroxy-2,3,4,5-tetrahydrobenzo[f][1,4]oxazepine-8-carboxamide] | 100 to 500 nM
18 | O=C(NO)c1ccc2c(c1)OCCN(C(=O)C1CC3(CCNCC3)c3ccccc31)C2 (stereo not drawn) [4-(2,3-dihydrospiro[indene-1,4′-piperidine]-3-carbonyl)-N-hydroxy-2,3,4,5-tetrahydrobenzo[f][1,4]oxazepine-8-carboxamide] | 100 to 500 nM
19 | COc1ccc(C(=O)N2CCOc3cc(C(=O)NO)ccc3C2)c(OC)c1 [4-(2,4-dimethoxybenzoyl)-N-hydroxy-2,3,4,5-tetrahydrobenzo[f][1,4]oxazepine-8-carboxamide] | 100 to 500 nM
20 | Cc1cccc(C)c1C(=O)N1CCOc2cc(C(=O)NO)ccc2C1 [4-(2,6-dimethylbenzoyl)-N-hydroxy-2,3,4,5-tetrahydrobenzo[f][1,4]oxazepine-8-carboxamide] | 100 to 500 nM
21 | O=C(NO)c1ccc2c(c1)OCCN(C(=O)CN1CCS(=O)(=O)CC1)C2 [4-(2-(1,1-dioxidothiomorpholino)acetyl)-N-hydroxy-2,3,4,5-tetrahydrobenzo[f][1,4]oxazepine-8-carboxamide] | > 500 nM
22 | CC(C(=O)N1CCOc2cc(C(=O)NO)ccc2C1)N1CCS(=O)(=O)CC1 (stereo not drawn) [4-(2-(1,1-dioxidothiomorpholino)propanoyl)-N-hydroxy-2,3,4,5-tetrahydrobenzo[f][1,4]oxazepine-8-carboxamide] | > 500 nM
23 | CC(C)(C(=O)N1CCOc2cc(C(=O)NO)ccc2C1)c1ccc2c(c1)OCCO2 [4-(2-(2,3-dihydrobenzo[b][1,4]dioxin-6-yl)-2-methylpropanoyl)-N-hydroxy-2,3,4,5-tetrahydrobenzo[f][1,4]oxazepine-8-carboxamide] | 100 to 500 nM
24 | COc1ccc(C(C)(C)C(=O)N2CCOc3cc(C(=O)NO)ccc3C2)cc1OC [4-(2-(3,4-dimethoxyphenyl)-2-methylpropanoyl)-N-hydroxy-2,3,4,5-tetrahydrobenzo[f][1,4]oxazepine-8-carboxamide] | 100 to 500 nM
25 | O=C(NO)c1ccc2c(c1)OCCN(C(=O)Cc1cc(C(F)(F)F)cc(C(F)(F)F)c1)C2 [4-(2-(3,5-bis(trifluoromethyl)phenyl)acetyl)-N-hydroxy-2,3,4,5-tetrahydrobenzo[f][1,4]oxazepine-8-carboxamide] | 100 to 500 nM
26 | CC(C)(C)OC(C(=O)N1CCOc2cc(C(=O)NO)ccc2C1)c1ccccc1 (stereo not drawn) [4-(2-(tert-butoxy)-2-phenylacetyl)-N-hydroxy-2,3,4,5-tetrahydrobenzo[f][1,4]oxazepine-8-carboxamide] | 100 to 500 nM
27 | O=C(NO)c1ccc2c(c1)OCCN(C(=O)C(O)(c1ccccc1)C1CCCC1)C2 (stereo not drawn) [4-(2-cyclopentyl-2-hydroxy-2-phenylacetyl)-N-hydroxy-2,3,4,5-tetrahydrobenzo[f][1,4]oxazepine-8-carboxamide] | > 500 nM
